Experimental findings from US6670382B2, “Hydroxyformamidine derivatives and medicines containing the same” (Taisho Pharmaceutical Co., Ltd., priority 2000, dated 2003) are described below.

pIC50: −log10 of the molar value.

Data set [1] concerns 20-HETE synthase derived from rat kidney microsome. Briefly: Inhibitory effect of 20-HETE synthase derived from rat kidney microsome. To be noted: SHR rat kidney microsome; for pIC50: concentration at which 20-HETE production was inhibited to 50%; for Inhibition (1 µM): inhibition rate of 20-HETE production, subject compound 1 μM, 3H-arachidonic acid, NADPH, 1.5 hours at 37° C., pH 7.4. It counts as biochemical. The method, then:
[Inhibitory Effect of 20-HETE Synthase Derived from Rat Kidney Microsome]
Regarding the compounds listed in the Table described above, their inhibitory activities on production of 20-HETE were examined.
This examination was carried out based on the method described in J. Pharmacol. Exp. Ther., Vol. 268, p. 474 (1994).
The subject compound in an amount of 1 μM was added to a 50 mM of 3-morpholinopropanesulfonic acid buffer (MOPS) (pH 7.4), containing 5 mM of magnesium chloride, and 1 mM of ethylenediaminetetraacetic acid (EDTA) disodium salt.
Subsequently, the rat kidney microsome fraction prepared from the kidney of a spontaneously hypertensive rat (male, 6 weeks of age) as an enzyme, [5,6,8,9,11,12,14,15] tritium-arachidonic acid (supplied by Amasham) as a substrate, and NADPH (supplied by Sigma) as a coenzyme were added, and were reacted for 1.5 hours at 37° C.
After the reaction was quenched by adding formic acid (supplied by Wako Pure Chemical Industries Ltd.) to the reaction solution, acetonitrile (final concentration of 50%) was added thereto, and the mixture was allowed to stand for 1.5 hours at room temperature. The amount of 20-HETE production was measured by using a high performance liquid chromatography having a detector for radioactive substances (supplied by Gilson), equipped with an ODS column (Biocyl C18, supplied by Bio-rad).
Setting an amount of 20-HETE production to 100% when no subject compound was added, the inhibition rate (%) was calculated from the amount of 20-HETE production when a subject compound was added.
In addition, setting an amount of 20-HETE production to 100% when no subject compound was added, the concentration of the subject compound at which the production of the 20-HETE was inhibited to 50% when the subject compound is added (IC50 value) was also calculated.

For orientation: pIC50 means the negative decadic logarithm of the IC50, by convention in mol/L. One may read the melting point as the temperature, or range, at which the solid turns liquid. Regarding `COc1ccccc1CCOc1ccc(N/C=N/O)cn1` [Comp. 69], the melting point fell in the range of 159.5 to 161 °C. Moreover, in data set [1], the pIC50 was 8.19 and the “Inhibition (1 µM)” value was 102.8%.
In the case of `CC(C)(C)Sc1ccc(N/C=N/O)cn1` [Comp. 117], the melting point lay within 174.5 to 175 °C. In addition, in data set [1], the negative logarithm of the IC50 (pIC50) is 6.36 and the “Inhibition (1 µM)” value was 69.3%.
On to `O/N=C/Nc1ccc(SCc2ccccc2)nc1` [Comp. 104, N-[2-(benzylthio)pyridin-5-yl]-N′-hydroxyformamidine], for which the melting point lay within 133 to 135 °C. For the same compound, in data set [1], the “Inhibition (1 µM)” value amounted to 103.6%.
